According to patent US5696089A, “Histidine substituted growth hormone releasing factor analogs” (Roche Vitamins Inc., priority 1995, dated 1997):
Where a SMILES comes first, the peptide text is derived from it. Where no end group is shown, it is not given here. The star is where a group is joined. Desaminohistidyl = O=C(CCc1c[nH]cn1)*

How the values were obtained:
rat pituitary cells = format: cell-based
Experimental: The biological activity of the novel peptides were compared with that of a synthetic standard of the natural sequence of GRF(1-44)-NH2 which was isolated from a human pancreatic tumor of an individual suffering from acromegaly (Salk Institute standard hp-GRF-NH2 (NL-A-10)). The assay for biological activity, which is based on the ability to stimulate production of growth hormone in rat pituitary cells in tissue culture, was performed in the following manner. Pituitaries from 30-40 male Sprague-Dawley rats (175 g) were removed aseptically after decapitation. The anterior lobes were collected, washed 3 times in sterile Hepes buffer (0.025M)(pH 7.35) and dispersed at 37° C. in 20-30 ml Hepes buffer (pH 7.35) containing collagenasa (4 mg per ml) and Dispase (Protease grande II, 2 mg per ml). After gentle 80 min. vortexing and trituration by Pasteur pipette, the dispersed cells were separated by centrifugation (150×g, 4 min.) and re-suspended in Hepes buffer containing neuraminidase (4 μg/ml), and 200 μg/ml ethylenediaminetetraacetic acid (EDTA) disodium salt pH 7.35, for 10 min. The cells were washed twice with plating medium and plated on multiwell-plates (1.5×10^5 cells per ml) using the following defined medium: F-12/DMEM/BGJ(6:3:1) (Gibco: 430-1700/430-1600/320-2591) with 2 g BSA/1., 2.38 g Hepes/1., 50 mg Gentamycin/1 (Schering Co.). The medium in each well was supplemented either with the novel peptide or natural GRF(1-44)-NH2 at concentrations ranging from 3.1 to 200 fmol. per ml. of medium. Control wells contained no supplement. Plating was done with this medium added with 2% fetal calf serum to ensure rapid fixation of the cells. On the fourth day the cells were washed twice with the defined medium without fetal calf serum. Finally 900 μl of defined medium was added to each well plus 100 μl of the same medium containing each individual treatment, in triplicate. After 3 hours of incubation the medium was collected and diluted as required to conduct radioimmuno- assays (RIAs) for rat growth hormone. RIAs were conducted using Sinha's anti-murine GH immune serum and procedures according to the National Pituitary Agency using protein A to precipitate antibody antigen complex.

[1] = In vitro plasma stability by porcine plasma incubation at 37° C.; format: in vitro ADME; details: pooled porcine plasma, 100 μg/ml, HPLC after SEP-PAK extraction
Experimental: In vitro plasma stability of GRF analogs were determined by porcine plasma incubation at 37° C. Pooled porcine plasma was collected from control pigs and stored at -20° C. GRF analogs of interest were prepared as discussed above. The plasma was first thawed and centrifuged at 3000 rpm for 20 minutes at 4° C. The plasma was then placed in a shaker bath at a temperature of 37° C. and allowed to equilibrate for 10 minutes. GRF analogs were dissolved in water containing 0.1% TFA at a concentration of 2 μg/μl. As soon as the initial equilibration was completed, an analog was added into the plasma sample to a final concentration of 100 μg/ml. Immediately after the addition of a GRF analog, a 1 ml aliquot of plasma sample was withdrawn and acidified with 0.2 ml of 0.1M TFA/H2 O and kept at 0° C. for later solid phase extraction. The remaining plasma samples were incubated in the water bath and 1 ml aliquots were withdrawn at different time periods and acidified by the same procedure described above.
Plasma samples were extracted with SEP-PAK octadecyl columns (Waters Associates). The column cartridge was washed with 2 ml 80% acetic acid followed by 4 ml of 0.01M TFA. After the plasma sample was loaded, the column was washed with 3 ml of 0.1M TFA to remove the excess unbound biological material. The solvent remaining in the cartridges was forced out by two passes of air from a 10 ml syringe. The bound material was then eluted with 80% acetic acid and 3 ml eluate was collected for chromatographic analysis. Two high performance liquid chromatography systems were used. System A: Instrumentation--Perkin-Elmer Series 4 liquid chromatography microprocessor-controlled solvent delivery system, Waters intelligent sample processor (WISP) model 710 (Waters Associates), and a Hewlett-Packard 1040M Diode Assay Detection System. Column--Delta Pak C18, 3.5×150 mm, 5 μm spherical (Nihon Waters Ltd.). Mobile phase-(A) 0.1% TFA in H2 O, (B) 0.1% TFA in 95% acetonitrile and 5% H2 O. Gradient was 34-50% (B) in 60 minutes, flow rate 1 ml/minute, and the detection was at 215 nm. System B: Instrumentation--Waters 600 multi-solvent delivery system, WISP model 712 and LDC spectromonitor III. Column--Vydac 201TP54, C18 4.6×250 mm, 10 μm (The Separations Group). Mobile phase--same as in System A. Gradient max 30% (B) isocratic for 10 minutes, followed by 30-50% (B) gradient for 60 minutes, flow rate was 1 ml/minute, and the detection was at 215 nm. Amino acid analysis was done as described above. Results of plasma half life are found in Table 2.

Compound	Potency of GRF Analogs Relative to GRF(1-44)-NH2 (rat pituitary cells)	Half Life (t1/2) [1] [h]
HIDAIFTNSYRKVLAQLSARKLLQDIMSR-NH2 [[His^1,Ile^2,Ala^15]-GRF(1-29)-NH2]	1.24	–
HVDAIFTNSYRKVLAQLSARKLLQDIMSR-NH2 [[His^1,Val^2,Ala^15]-GRF(1-29)-NH2]	2.58	1
YADAIFTNSYRKVLAQLSARKLLQDIMSR-NH2 [[Ala^15]-GRF(1-29)-NH2, reference compound]	–	0.283
HVDAIFTNSYRKVLAQLSARKLLQDILSRQQG [[His^1,Val^2,Ala^15,Leu^27]-GRF(1-32)-OH]	2.40	1
YVDAIFTNSYRKVLAQLSARKLLQDILSRQQG [[Val^2,Ala^15,Leu^27]-GRF(1-32)-OH]	–	1.17
CC[C@H](C)[C@H](NC(=O)[C@H](C)NC(=O)[C@H](CC(=O)O)NC(=O)[C@@H](NC(=O)CCc1c[nH]cn1)C(C)C)C(=O)N[C@@H](Cc1ccccc1)C(=O)N[C@H](C(=O)N[C@@H](CC(N)=O)C(=O)N[C@@H](CO)C(=O)N[C@@H](Cc1ccc(O)cc1)C(=O)N[C@@H](CCCNC(=N)N)C(=O)N[C@@H](CCCCN)C(=O)N[C@H](C(=O)N[C@@H](CC(C)C)C(=O)N[C@@H](C)C(=O)N[C@@H](CCC(N)=O)C(=O)N[C@@H](CC(C)C)C(=O)N[C@@H](CO)C(=O)N[C@@H](C)C(=O)N[C@@H](CCCNC(=N)N)C(=O)N[C@@H](CCCCN)C(=O)N[C@@H](CC(C)C)C(=O)N[C@@H](CC(C)C)C(=O)N[C@@H](CCC(N)=O)C(=O)N[C@@H](CC(=O)O)C(=O)N[C@H](C(=O)N[C@@H](CCSC)C(=O)N[C@@H](CO)C(=O)N[C@@H](CCCNC(=N)N)C(N)=O)[C@@H](C)CC)C(C)C)[C@@H](C)O [[desNH2 His^1,Val^2,Ala^15]-GRF(1-29)-NH2] (Desaminohistidyl-VDAIFTNSYRKVLAQLSARKLLQDIMSR-NH2)	1.21	–
CC[C@H](C)[C@H](NC(=O)[C@H](C)NC(=O)[C@H](CC(=O)O)NC(=O)[C@H](C)NC(=O)[C@@H](N)Cc1ccc(O)cc1)C(=O)N[C@@H](Cc1ccccc1)C(=O)N[C@H](C(=O)N[C@@H](CC(N)=O)C(=O)N[C@@H](CO)C(=O)N[C@@H](Cc1ccc(O)cc1)C(=O)N[C@@H](CCCNC(=N)N)C(=O)N[C@@H](CCCCN)C(=O)N[C@H](C(=O)N[C@@H](CC(C)C)C(=O)NCC(=O)N[C@@H](CCC(N)=O)C(=O)N[C@@H](CC(C)C)C(=O)N[C@@H](CO)C(=O)N[C@@H](C)C(=O)N[C@@H](CCCNC(=N)N)C(=O)N[C@@H](CCCCN)C(=O)N[C@@H](CC(C)C)C(=O)N[C@@H](CC(C)C)C(=O)N[C@@H](CCC(N)=O)C(=O)N[C@@H](CC(=O)O)C(=O)N[C@H](C(=O)N[C@@H](CCSC)C(=O)N[C@@H](CO)C(=O)N[C@@H](CCCNC(=N)N)C(=O)N[C@@H](CCC(N)=O)C(=O)N[C@@H](CCC(N)=O)C(=O)NCC(=O)N[C@@H](CCC(=O)O)C(=O)N[C@@H](CO)C(=O)N[C@@H](CC(N)=O)C(=O)N[C@@H](CCC(N)=O)C(=O)N[C@@H](CCC(=O)O)C(=O)N[C@@H](CCCNC(=N)N)C(=O)NCC(=O)N[C@@H](C)C(=O)N[C@@H](CCCNC(=N)N)C(=O)N[C@@H](C)C(=O)N[C@@H](CCCNC(=N)N)C(=O)N[C@@H](CC(C)C)C(N)=O)[C@@H](C)CC)C(C)C)[C@@H](C)O [GRF(1-44)-NH2, reference compound]	1.00	–
CC[C@H](C)[C@H](NC(=O)[C@H](C)NC(=O)[C@H](CC(=O)O)NC(=O)[C@H](C)NC(=O)[C@@H](N)Cc1ccc(O)cc1)C(=O)N[C@@H](Cc1ccccc1)C(=O)N[C@H](C(=O)N[C@@H](CC(N)=O)C(=O)N[C@@H](CO)C(=O)N[C@@H](Cc1ccc(O)cc1)C(=O)N[C@@H](CCCNC(=N)N)C(=O)N[C@@H](CCCCN)C(=O)N[C@H](C(=O)N[C@@H](CC(C)C)C(=O)NCC(=O)N[C@@H](CCC(N)=O)C(=O)N[C@@H](CC(C)C)C(=O)N[C@@H](CO)C(=O)N[C@@H](C)C(=O)N[C@@H](CCCNC(=N)N)C(=O)N[C@@H](CCCCN)C(=O)N[C@@H](CC(C)C)C(=O)N[C@@H](CC(C)C)C(=O)N[C@@H](CCC(N)=O)C(=O)N[C@@H](CC(=O)O)C(=O)N[C@H](C(=O)N[C@@H](CCSC)C(=O)N[C@@H](CO)C(=O)N[C@@H](CCCNC(=N)N)C(N)=O)[C@@H](C)CC)C(C)C)[C@@H](C)O [GRF(1-29)-NH2, reference compound]	0.71	0.217
